Measurements reported in patent publication US20070037752A1, “Novel alanyl-amino peptidase inhibitors for functionally influencing different cells and treating immunological, inflammatory, neuronal, and other diseases” (priority 2003, published 2007).
Where two headings read alike, the source gives them in different places.

Target: alanyl aminopeptidases (APN) (Homo sapiens, UniProt P15144)
Experiment: Inhibition of alanyl aminopeptidase enzymatic activity, fluorogenic substrate (Ala)2-rhodamine 110
Format: biochemical
Experimental: The inhibition characteristics measured are referred to as IC-50 values or ID50 values (the latter marked with “*”) for said enzyme. The enzymatic activity was determined by means of the fluorogenic substrate/product (Ala)2-rhodamine 110.

[1] = Table 4, unstarred values, read-out: IC50APN
[2] = Table 4, starred values = ID50, read-out: ID50 APN (values marked with *)
[3] = Table 5, unstarred values, read-out: IC50APN

alanyl aminopeptidases (APN), sequence (P15144 whole entry, species assumed): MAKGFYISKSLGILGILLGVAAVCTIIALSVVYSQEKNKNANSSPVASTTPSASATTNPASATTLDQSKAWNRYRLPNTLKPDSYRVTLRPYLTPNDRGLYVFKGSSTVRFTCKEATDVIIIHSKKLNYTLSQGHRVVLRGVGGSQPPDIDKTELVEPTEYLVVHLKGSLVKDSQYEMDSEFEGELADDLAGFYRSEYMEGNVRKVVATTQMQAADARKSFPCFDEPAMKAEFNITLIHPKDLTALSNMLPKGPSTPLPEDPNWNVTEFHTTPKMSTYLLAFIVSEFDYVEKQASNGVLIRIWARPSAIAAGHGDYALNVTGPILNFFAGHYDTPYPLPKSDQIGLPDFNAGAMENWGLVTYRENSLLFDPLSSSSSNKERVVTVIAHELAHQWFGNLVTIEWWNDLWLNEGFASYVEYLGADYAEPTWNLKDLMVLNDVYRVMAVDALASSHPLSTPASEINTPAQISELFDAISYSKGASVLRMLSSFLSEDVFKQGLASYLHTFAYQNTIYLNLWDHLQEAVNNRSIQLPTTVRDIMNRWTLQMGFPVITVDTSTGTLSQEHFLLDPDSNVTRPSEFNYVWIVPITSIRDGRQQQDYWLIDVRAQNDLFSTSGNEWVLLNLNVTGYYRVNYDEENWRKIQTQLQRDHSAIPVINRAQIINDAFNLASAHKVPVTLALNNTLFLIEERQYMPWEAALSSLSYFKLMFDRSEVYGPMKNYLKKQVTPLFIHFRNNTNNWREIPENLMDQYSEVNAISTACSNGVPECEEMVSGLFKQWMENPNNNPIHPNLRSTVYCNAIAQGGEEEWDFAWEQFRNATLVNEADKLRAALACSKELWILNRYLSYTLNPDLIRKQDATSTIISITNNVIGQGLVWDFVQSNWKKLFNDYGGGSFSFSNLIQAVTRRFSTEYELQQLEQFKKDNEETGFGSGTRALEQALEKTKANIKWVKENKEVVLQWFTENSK

Compound | IC50 [1] [µM] | IC50 [2] [µM] | other results
CC(/C=N/NC(=O)C(O)c1ccccc1)=C\c1ccco1 (centres unmarked) [A4.118] | 36.3 |  | 
COc1ccc(C(=O)N/N=C\c2cc(Br)c(O)c(O)c2Br)cc1 [A4.124] |  | 39.7 | 
Cc1cc(Br)c(OCC(=O)N/N=C/c2c(Br)cc(Br)c(O)c2Br)c(Br)c1 [A4.126] | 42.2 |  | 
Cc1ccc(/C=N/NC(=O)c2ccc(N3CCCC3=O)cc2)o1 [A4.129] | 44.2 |  | 
O=C(N/C=C1/C(=O)Nc2ccc(F)cc21)/C(=C/c1ccccc1)NC(=O)c1ccccc1 [A4.130] | 44.2 |  | 
O=C(O)CC1S/C(=N/N=C/c2ccco2)NC1=O (centres unmarked) [A4.138] |  | 48.1 | 
Cc1cc(C(=O)N/N=C/c2ccco2)[nH]n1 [A4.139] | 48.2 |  | 
NC(=S)N/N=C/c1ccco1 [A4.141] | 50 |  | 
Cc1ccc(/C=N/NC(=O)c2cc(C)oc2C)o1 [A4.142] | 50.2 |  | 
CCCCCCCC(=O)N/N=C/c1ccco1 [A4.143] | 50.3 |  | 
Cc1ccc(/C=N\NC(=O)Cc2cccs2)o1 [A4.144] | 51.1 |  | 
CC(/C=C/c1ccco1)=N\NC(=O)COc1ccc(C(C)(C)C)cc1 [A4.145] | 53.4 |  | 
Cc1ccc(OCC(=O)N/N=C/c2c(Br)cc(Br)c(O)c2Br)c(Br)c1 [A4.147] |  | 54.2 | 
C/C(=N\NC(=O)c1cc(-c2ccccc2)n[nH]1)c1ccco1 [A4.149] | 58.3 |  | 
O=C(N/N=C/C=C\c1ccco1)c1cccs1 [A4.151] | 62.7 |  | 
Cc1ccc(/C=N/NC(=O)COc2cccc(Cl)c2)o1 [A4.153] | 62.7 |  | 
CC(=O)Nc1cccc(C(=O)N/N=C/c2ccc(C)o2)c1 [A4.154] |  | 63.1 | 
COc1ccc(C(=O)NCC(=O)N/N=C/c2ccco2)cc1OC [A4.156] |  | 64.9 | 
COc1ccc(OCC(=O)N/N=C/c2c(Br)cc(Br)c(O)c2Br)cc1 [A4.164] |  | 76.4 | 
Cn1c(=O)c2c(ncn2CC(=O)N/N=C/C=C\c2ccco2)n(C)c1=O [A4.166] |  | 79.8 | 
COc1ccc(/C=N/NC(=O)CNC(=O)c2cccc(F)c2)cc1[N+](=O)[O-] [A4.167] |  | 80.4 | 
Cn1cccc1CC(=O)N/N=C\c1ccco1 [A4.174] |  | 113 | 
O=C(N/N=C\C=C\c1ccco1)c1cc(-c2cccs2)n[nH]1 [A4.175] |  | 132 | 
COc1cccc(/C=N/NC(=O)c2ccn(C)n2)c1O [A4.177] | 142 |  | 
O=C(Cc1cccs1)N/N=C\c1ccco1 [A4.178] | 143 |  | 
C/C(=N\NC(=O)c1ccco1)c1ccc(C)o1 [A4.179] | 152 |  | 

Compound | IC50 [1] [µM] | IC50 [2] [µM] | other results
C/C(=N\NC(=O)c1cc(-c2ccco2)n[nH]1)c1ccco1 [A4.181] |  | 161 | 
COc1cc(C(=O)NCC(=O)N/N=C\c2ccc(C)o2)cc(OC)c1OC [A4.182] |  | 161 | 
COc1cccc(C(=O)NCC(=O)N/N=C/c2ccc([N+](=O)[O-])o2)c1 [A4.183] |  | 222 | 
C/C(=N\NC(=O)c1ccn(C)n1)c1ccco1 [A4.186] |  | 323 | 
C/C(=N\NC(=O)COc1ccc(C)cc1[N+](=O)[O-])c1ccco1 [A4.187] |  | 422 | 
O=C(Nc1cccc(/N=C/c2cc(/N=N\c3ccccc3Cl)ccc2O)c1)c1ccco1 [A5.001] |  |  | IC50 [3]: 3.6 µM
O=C(Nc1cccc(/N=C/c2cc(Br)cc(Br)c2O)c1)c1ccco1 [A5.003] |  |  | IC50 [3]: 8.2 µM
CCCOc1[nH]c(/N=C/c2ccccc2)c(C#N)c1C#N [A5.004] |  |  | IC50 [3]: 20 µM
Oc1ccc(Cl)cc1/N=C/c1ccc(-c2ccc(F)cc2)o1 [A5.005] |  |  | IC50 [3]: 77.3 µM
CC1(C)CC(CC/N=C/c2ccccc2)(Cc2ccccc2)CCO1 (centres unmarked) [A5.006] |  |  | IC50 [3]: 93.6 µM
CC(C)Oc1ccc(/C=N/CCC2(c3ccccc3)CCOC(C)(C)C2)cc1 (centres unmarked) [A5.007] |  |  | IC50 (Table 5, starred values = ID50, read-out: ID50 APN (values marked with *)): 197 µM
COc1ccc(C(=O)Nc2ccc(S(=O)(=O)N3CCCCC3)cc2)cc1 [A6.001] |  |  | IC50 (Table 6, read-out: IC50APN): 8.4 µM
CC1CCCN(S(=O)(=O)c2ccc(NC(=O)/C=C/c3ccco3)cc2)C1 (centres unmarked) [A6.002] |  |  | IC50 (Table 6, read-out: IC50APN): 8.4 µM
O=C(CS(=O)(=O)c1ccc(Cl)cc1)NO [A6.003] |  |  | IC50 (Table 6, read-out: IC50APN): 11.5 µM
NNC(=O)c1ccc(NS(=O)(=O)c2cccs2)cc1 [A6.004] |  |  | IC50 (Table 6, read-out: IC50APN): 11.8 µM
Cc1ccc(S(=O)(=O)CNC(=S)c2ccc3ccccc3c2)cc1 [A6.005] |  |  | IC50 (Table 6, read-out: IC50APN): 11.8 µM
N/C(=N/OS(=O)(=O)c1ccc(C(F)(F)F)cc1)C1CSCCS1 (centres unmarked) [A6.006] |  |  | IC50 (Table 6, read-out: IC50APN): 13.4 µM
O=[N+](O)CC(c1ccccc1)P(=O)(c1ccccc1)c1ccccc1 (centres unmarked) [A6.007] |  |  | IC50 (Table 6, read-out: IC50APN): 16.3 µM
Cc1ccc(S(=O)(=O)N(Cc2ccc(Cl)cc2)c2ccccc2C(=O)N/N=C/c2ccco2)cc1 [A6.008] |  |  | IC50 (Table 6, read-out: IC50APN): 16.4 µM
Cc1ccccc1S(=O)(=O)Nc1cccc(C(=O)N/N=C/c2ccco2)c1 [A6.009] |  |  | IC50 (Table 6, read-out: IC50APN): 19.2 µM
CCOC(=O)c1c(C)oc2c1c1c(c3ccccc32)OCN(C2CCS(=O)(=O)C2)C1 (centres unmarked) [A6.010] |  |  | IC50 (Table 6, read-out: IC50APN): 22.3 µM
Cc1ccc(S(=O)(=O)CNC(=S)c2ccc(Cl)c(Cl)c2)cc1 [A6.011] |  |  | IC50 (Table 6, read-out: IC50APN): 18 µM
O=C(Nc1ccc(N=Nc2ccccc2)cc1)c1ccc(S(=O)(=O)N2CCCC2)cc1 [A6.012] |  |  | IC50 (Table 6, read-out: IC50APN): 21.6 µM
Cc1ccc(/C=C/C(=O)Nc2ccc(S(=O)(=O)N3CCCC3)cc2)o1 [A6.013] |  |  | IC50 (Table 6, read-out: IC50APN): 24.8 µM
CC1CCN(S(=O)(=O)c2ccc3c(c2)C(Cl)(Cl)C(=O)N3)CC1 [A6.015] |  |  | IC50 (Table 6, read-out: IC50APN): 37.2 µM
O=C(CNS(=O)(=O)c1ccc2c(c1)OCCO2)N/N=C/c1ccco1 [A6.016] |  |  | IC50 (Table 6, read-out: IC50APN): 55.6 µM

Second part, led by results:

IC50 [1] [µM] | IC50 [2] [µM] | Compound | other results
36.6 |  | Cc1c(Cl)cccc1NC(=O)CCC(=O)N/N=C/c1ccco1 [A4.119] | 
37.7 |  | O=C(N/N=C/c1ccco1)c1ccccc1 [A4.120] | 
38.2 |  | COc1ccc2ccccc2c1-c1cc(C(=O)N/N=C(\C)c2ccco2)[nH]n1 [A4.121] | 
38.3 |  | O=C(N/N=C/c1ccco1)c1ccc(O)cc1O [A4.122] | 
38.4 |  | CC(=O)Nc1ccc(C(=O)N/N=C/c2ccco2)cc1 [A4.123] | 
41.1 |  | O=C(CCC(=O)Nc1ccccc1)N/N=C/c1ccco1 [A4.125] | 
43.2 |  | COc1ccc(OC)c(-c2cc(C(=O)N/N=C/c3ccco3)[nH]n2)c1 [A4.127] | 
43.3 |  | O=C(Cn1cnc2ccccc21)N/N=C/c1ccco1 [A4.128] | 
44.7 |  | COc1ccccc1C(=O)N/N=C/c1ccco1 [A4.131] | 
45.4 |  | O=C(N/N=C/c1cccc([N+](=O)[O-])c1)c1ccco1 [A4.132] | 
45.4 |  | Cc1ccccc1C(=O)Nc1ccc(C(=O)N/N=C/c2ccco2)cc1 [A4.133] | 
46.6 |  | CC(C)Oc1ccc(Br)cc1C(=O)N/N=C/c1ccco1 [A4.134] | 
46.6 |  | Nc1nonc1-n1nnc(C(=O)N/N=C/c2ccco2)c1-c1ccccc1 [A4.135] | 
47 |  | COc1ccc(N(C(C)C(=O)N/N=C/c2ccco2)S(C)(=O)=O)cc1 (centres unmarked) [A4.136] | 
47.3 |  | O=C(COc1ccc2ccccc2c1Br)N/N=C/c1ccco1 [A4.137] | 
 | 49.4 | O=C(CNC(=O)c1ccccc1)N/N=C/c1ccco1 [A4.140] | 
54.2 |  | O=C(N/N=C/c1cc(Br)ccc1OC(=O)c1ccc([N+](=O)[O-])cc1)/C(=C\c1ccc2c(c1)OCO2)NC(=O)c1ccccc1 [A4.146] | 
55.6 |  | O=C(CNS(=O)(=O)c1ccc2c(c1)OCCO2)N/N=C/c1ccco1 [A4.148] | 
60 |  | O=C(CNC(=O)c1ccccc1F)N/N=C/c1ccc([N+](=O)[O-])o1 [A4.150] | 

IC50 [1] [µM] | IC50 [2] [µM] | Compound | other results
62.7 |  | O=C(N/N=C/c1ccco1)c1cccc(Br)c1 [A4.152] | 
 | 66 | COc1ccc(CSCC(=O)N/N=C/c2ccco2)cc1 [A4.157] | 
 | 67.1 | Cc1cccc(C(=O)Nc2ccc(C(=O)N/N=C/c3ccco3)cc2)c1 [A4.158] | 
68.9 |  | O=C(N/N=C/c1ccco1)c1ccc(F)cc1 [A4.159] | 
69.3 |  | Cc1ccc(S(=O)(=O)N2CCC(C(=O)N/N=C/c3ccco3)CC2)cc1 [A4.160] | 
 | 73.1 | O=C(Cc1ccccc1)NCC(=O)N/N=C/c1ccco1 [A4.161] | 
74.7 |  | O=C(CCc1ccccc1)N/N=C/c1ccco1 [A4.162] | 
 | 75.8 | O=C(N/N=C/c1ccco1)c1cc(-c2ccccc2Cl)n[nH]1 [A4.163] | 
 | 81.8 | Cc1ccc(OCC(=O)N/N=C\c2ccco2)c(C)c1 [A4.168] | 
82.9 |  | O=C(CCn1nnc2ccccc21)N/N=C/c1ccco1 [A4.169] | 
87.5 |  | O=C(COc1ccccc1)N/N=C/c1ccco1 [A4.170] | 
 | 91.2 | O=C(CNC(=O)c1ccccc1Br)N/N=C/c1ccco1 [A4.171] | 
91.2 |  | O=C(N/N=C/c1ccco1)c1ccccc1[N+](=O)[O-] [A4.172] | 
 | 98.8 | O=C(CNC(=O)c1ccccc1O)N/N=C/c1ccco1 [A4.173] | 
 | 146 | CC(C(=O)N/N=C/c1ccco1)n1nnc2ccccc21 (centres unmarked) [A4.176] | 
 | 155 | O=C(CNC(=O)c1cccc(F)c1)N/N=C/c1ccco1 [A4.180] | 
 | 294 | O=C(N/N=C/c1ccco1)c1ccc(NCc2ccccc2)cc1 [A4.184] | 
 | 305 | O=C(N/N=C/c1ccco1)c1ccc([N+](=O)[O-])cc1 [A4.185] | 
